Key:
[1] = molecular target: Mitogen-activated protein kinase 9 (Homo sapiens, UniProt P45984); test: Selectivity interaction (Kinase panel (literature)) EUB0001199aCl MAPK9; details: at 1 µM
[2] = molecular target: T1, Aurora kinase A (Homo sapiens) (UniProt O14965); test: Selectivity interaction (ActivX KiNativ screen (kinase selectivity in THP-1 cell lysates)) EUB0000639a STK6; type: subcellular; details: lysate, at 5 µM
T1 sequence (whole entry): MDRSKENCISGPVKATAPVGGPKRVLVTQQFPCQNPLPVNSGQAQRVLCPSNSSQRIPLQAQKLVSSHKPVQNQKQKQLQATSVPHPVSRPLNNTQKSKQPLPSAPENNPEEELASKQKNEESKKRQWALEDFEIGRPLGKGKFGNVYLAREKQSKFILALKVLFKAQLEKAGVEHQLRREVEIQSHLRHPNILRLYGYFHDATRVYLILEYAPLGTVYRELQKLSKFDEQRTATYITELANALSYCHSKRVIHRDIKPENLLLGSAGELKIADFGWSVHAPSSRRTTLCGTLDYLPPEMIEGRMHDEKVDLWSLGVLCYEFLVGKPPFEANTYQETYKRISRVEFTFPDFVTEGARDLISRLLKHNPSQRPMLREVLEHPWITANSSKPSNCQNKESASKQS

[3] = molecular target: T2, Mitogen-activated protein kinase 14 (Homo sapiens, UniProt Q16539); test: Selectivity interaction (ActivX KiNativ screen (kinase selectivity in THP-1 cell lysates)) EUB0000639a MAPK14; type: subcellular; details: lysate, at 0.01 µM
[4] = molecular target: T3, 3-phosphoinositide-dependent protein kinase 1 (Homo sapiens) (UniProt O15530); test: Selectivity interaction (KinomeScan (DiscoverX)) EUB0000092b PDPK1; details: at 10 µM
T3 sequence (whole entry): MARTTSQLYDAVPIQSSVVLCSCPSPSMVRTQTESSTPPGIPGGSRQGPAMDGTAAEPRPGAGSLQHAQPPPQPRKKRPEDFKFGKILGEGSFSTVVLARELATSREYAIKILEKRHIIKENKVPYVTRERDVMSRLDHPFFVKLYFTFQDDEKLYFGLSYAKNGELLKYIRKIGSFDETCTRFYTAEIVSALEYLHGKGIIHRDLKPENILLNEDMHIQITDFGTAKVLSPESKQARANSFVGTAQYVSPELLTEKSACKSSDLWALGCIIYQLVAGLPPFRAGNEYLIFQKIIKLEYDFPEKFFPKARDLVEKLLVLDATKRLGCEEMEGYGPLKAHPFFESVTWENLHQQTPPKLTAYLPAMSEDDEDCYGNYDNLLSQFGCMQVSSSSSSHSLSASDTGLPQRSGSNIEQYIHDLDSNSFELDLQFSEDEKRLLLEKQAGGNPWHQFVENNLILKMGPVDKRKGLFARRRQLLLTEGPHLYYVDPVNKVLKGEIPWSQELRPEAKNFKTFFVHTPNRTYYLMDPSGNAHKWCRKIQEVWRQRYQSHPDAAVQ

[5] = molecular target: Calcium/calmodulin-dependent protein kinase type II subunit alpha (Homo sapiens, UniProt Q9UQM7); test: Selectivity interaction (KinomeScan (DiscoverX)) EUB0000045b CAMK2A
[6] = molecular target: T4, Serine/threonine-protein kinase TAO3 (Homo sapiens) (UniProt Q9H2K8); test: Selectivity interaction (ActivX KiNativ screen (ex vivo kinase selectivity in human PBMCs)) EUB0001619a TAOK3; type: cell-based; details: PBMC, at 1 µM
T4 sequence (whole entry): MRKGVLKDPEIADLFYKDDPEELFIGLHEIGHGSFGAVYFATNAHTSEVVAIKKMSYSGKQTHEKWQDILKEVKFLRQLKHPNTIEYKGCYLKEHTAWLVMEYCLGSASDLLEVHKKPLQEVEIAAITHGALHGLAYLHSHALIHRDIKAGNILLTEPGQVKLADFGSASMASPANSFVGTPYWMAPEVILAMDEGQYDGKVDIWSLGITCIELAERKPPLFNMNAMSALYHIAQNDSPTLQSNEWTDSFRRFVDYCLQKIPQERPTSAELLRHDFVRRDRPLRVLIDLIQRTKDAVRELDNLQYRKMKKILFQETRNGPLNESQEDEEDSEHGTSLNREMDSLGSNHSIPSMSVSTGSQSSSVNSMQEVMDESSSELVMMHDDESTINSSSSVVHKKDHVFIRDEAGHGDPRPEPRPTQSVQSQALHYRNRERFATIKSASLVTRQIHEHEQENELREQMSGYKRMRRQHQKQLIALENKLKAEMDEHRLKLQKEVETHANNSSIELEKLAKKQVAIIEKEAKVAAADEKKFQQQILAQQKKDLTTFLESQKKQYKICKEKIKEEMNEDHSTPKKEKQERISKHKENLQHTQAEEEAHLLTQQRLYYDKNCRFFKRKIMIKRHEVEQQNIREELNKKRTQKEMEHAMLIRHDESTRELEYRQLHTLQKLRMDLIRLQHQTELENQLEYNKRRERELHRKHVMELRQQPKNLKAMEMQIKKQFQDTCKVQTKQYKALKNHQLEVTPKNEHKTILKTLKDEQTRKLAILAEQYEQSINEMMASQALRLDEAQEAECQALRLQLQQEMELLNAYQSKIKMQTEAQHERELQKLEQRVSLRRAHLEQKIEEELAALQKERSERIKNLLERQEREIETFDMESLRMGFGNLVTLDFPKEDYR

[7] = molecular target: T5, Serine/threonine-protein kinase ICK (Homo sapiens) (UniProt Q9UPZ9); test: Selectivity interaction (KinomeScan (DiscoverX)) EUB0000695a ICK; details: at 100 nM
T5 sequence (whole entry): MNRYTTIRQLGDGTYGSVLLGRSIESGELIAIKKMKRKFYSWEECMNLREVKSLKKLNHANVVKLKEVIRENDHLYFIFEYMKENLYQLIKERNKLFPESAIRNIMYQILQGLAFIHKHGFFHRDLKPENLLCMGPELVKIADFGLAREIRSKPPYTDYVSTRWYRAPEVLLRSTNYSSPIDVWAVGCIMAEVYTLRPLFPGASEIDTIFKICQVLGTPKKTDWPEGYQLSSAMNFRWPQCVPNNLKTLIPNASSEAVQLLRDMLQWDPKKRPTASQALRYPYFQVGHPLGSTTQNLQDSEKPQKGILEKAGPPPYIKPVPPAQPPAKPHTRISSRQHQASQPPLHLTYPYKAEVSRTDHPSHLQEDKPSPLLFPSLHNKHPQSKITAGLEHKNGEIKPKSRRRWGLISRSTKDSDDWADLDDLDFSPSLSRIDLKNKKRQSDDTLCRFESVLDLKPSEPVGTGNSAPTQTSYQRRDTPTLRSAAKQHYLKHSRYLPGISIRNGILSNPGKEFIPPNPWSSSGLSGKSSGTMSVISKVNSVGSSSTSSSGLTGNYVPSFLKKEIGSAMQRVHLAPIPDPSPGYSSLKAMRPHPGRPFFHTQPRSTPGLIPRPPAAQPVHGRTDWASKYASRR

[8] = test system: Phosphatidylinositol 4,5-bisphosphate 3-kinase catalytic subunit alpha isoform (Homo sapiens), P42336 [E542K]; details: at 10 µM
[9] = molecular target: T2, Mitogen-activated protein kinase 14; test: Selectivity interaction (Kinase panel (Z-LYTE Assay)) EUB0001632a MAPK14; details: at 10 µM

Calcium/calmodulin-dependent protein kinase type II subunit alpha, sequence (Q9UQM7 whole entry): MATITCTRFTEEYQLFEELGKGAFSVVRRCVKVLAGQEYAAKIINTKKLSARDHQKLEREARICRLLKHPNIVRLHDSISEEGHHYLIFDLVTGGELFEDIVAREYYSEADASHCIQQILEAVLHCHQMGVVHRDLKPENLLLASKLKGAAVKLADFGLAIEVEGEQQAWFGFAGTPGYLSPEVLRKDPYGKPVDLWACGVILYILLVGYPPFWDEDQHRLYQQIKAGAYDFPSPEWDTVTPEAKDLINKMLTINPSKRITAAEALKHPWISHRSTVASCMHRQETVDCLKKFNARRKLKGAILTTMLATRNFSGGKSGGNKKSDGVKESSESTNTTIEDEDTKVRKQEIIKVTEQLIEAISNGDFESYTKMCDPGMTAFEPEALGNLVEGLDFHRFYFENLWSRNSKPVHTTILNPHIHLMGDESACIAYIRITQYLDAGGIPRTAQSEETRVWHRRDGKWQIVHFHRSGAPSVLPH
T2 sequence (Q16539 whole entry): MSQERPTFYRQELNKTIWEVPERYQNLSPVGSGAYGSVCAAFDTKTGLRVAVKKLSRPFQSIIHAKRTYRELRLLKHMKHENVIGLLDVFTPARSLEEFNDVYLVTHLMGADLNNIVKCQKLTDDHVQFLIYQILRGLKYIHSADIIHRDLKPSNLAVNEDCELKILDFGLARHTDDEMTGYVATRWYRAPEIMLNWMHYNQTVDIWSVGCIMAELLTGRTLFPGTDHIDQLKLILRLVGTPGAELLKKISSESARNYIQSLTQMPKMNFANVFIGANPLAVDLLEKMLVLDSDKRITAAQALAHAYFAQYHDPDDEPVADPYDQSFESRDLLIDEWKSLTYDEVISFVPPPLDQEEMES
Mitogen-activated protein kinase 9, sequence (P45984 whole entry, looked up): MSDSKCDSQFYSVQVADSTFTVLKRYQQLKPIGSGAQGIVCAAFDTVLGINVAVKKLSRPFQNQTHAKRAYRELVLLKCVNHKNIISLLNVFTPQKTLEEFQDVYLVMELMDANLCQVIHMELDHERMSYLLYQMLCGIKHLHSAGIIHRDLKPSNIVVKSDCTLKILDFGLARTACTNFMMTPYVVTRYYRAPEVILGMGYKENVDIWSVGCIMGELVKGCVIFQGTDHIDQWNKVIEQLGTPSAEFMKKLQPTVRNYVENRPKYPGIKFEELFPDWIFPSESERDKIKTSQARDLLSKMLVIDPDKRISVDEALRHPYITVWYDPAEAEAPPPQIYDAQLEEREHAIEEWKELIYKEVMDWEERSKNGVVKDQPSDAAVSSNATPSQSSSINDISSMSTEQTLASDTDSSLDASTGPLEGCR
Phosphatidylinositol 4,5-bisphosphate 3-kinase catalytic subunit alpha isoform (Homo sapiens), P42336 [E542K], sequence (P42336 whole entry E542K, canonical isoform): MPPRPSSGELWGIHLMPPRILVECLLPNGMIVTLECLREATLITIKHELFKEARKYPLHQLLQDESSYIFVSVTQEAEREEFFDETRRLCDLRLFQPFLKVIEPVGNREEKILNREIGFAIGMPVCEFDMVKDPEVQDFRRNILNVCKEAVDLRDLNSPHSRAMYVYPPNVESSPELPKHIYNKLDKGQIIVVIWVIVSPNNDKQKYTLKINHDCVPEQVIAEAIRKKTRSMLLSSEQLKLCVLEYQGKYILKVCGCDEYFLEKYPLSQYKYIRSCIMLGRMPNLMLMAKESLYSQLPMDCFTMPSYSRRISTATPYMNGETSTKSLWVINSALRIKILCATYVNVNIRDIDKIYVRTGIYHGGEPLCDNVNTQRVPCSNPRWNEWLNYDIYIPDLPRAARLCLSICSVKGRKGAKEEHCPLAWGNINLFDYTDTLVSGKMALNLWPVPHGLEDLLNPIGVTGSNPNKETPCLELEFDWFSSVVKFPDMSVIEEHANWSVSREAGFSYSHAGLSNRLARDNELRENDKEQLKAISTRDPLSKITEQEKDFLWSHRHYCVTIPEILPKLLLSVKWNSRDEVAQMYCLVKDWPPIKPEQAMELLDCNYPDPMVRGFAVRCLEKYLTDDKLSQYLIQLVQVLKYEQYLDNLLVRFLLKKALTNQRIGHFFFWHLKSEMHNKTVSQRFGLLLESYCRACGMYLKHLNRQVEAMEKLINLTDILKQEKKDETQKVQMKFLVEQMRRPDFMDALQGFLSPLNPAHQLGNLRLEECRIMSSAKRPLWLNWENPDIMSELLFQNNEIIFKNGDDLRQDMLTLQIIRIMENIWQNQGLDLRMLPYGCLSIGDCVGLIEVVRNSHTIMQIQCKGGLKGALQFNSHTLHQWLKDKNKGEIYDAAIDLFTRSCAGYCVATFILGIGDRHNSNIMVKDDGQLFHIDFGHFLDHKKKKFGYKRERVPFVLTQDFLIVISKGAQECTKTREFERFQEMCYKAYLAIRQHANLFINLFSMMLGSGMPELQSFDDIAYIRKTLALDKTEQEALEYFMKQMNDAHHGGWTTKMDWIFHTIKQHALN

CN1Cc2nccc(-c3cn(C)nc3-c3ccc(F)cc3)c2C1=O
% of inhibition [1]: 18%

CC[C@@H]1[C@H](F)C(=O)N[C@@H]1COc1nccc2cc(C(N)=O)c(OC)cc12 [ZIMLOVISERTIB]
% of inhibition [2]: 64.4% | % of inhibition [3]: -4.1%

CCC(=O)N1CCN(c2ccc(-n3c(=O)ccc4cnc5ccc(-c6cnc7ccccc7c6)cc5c43)cc2C(F)(F)F)CC1
% of control [4]: 100%

C=CC(=O)Nc1cc(-n2c(=O)ccc3cnc4ccc(-c5ccc(NS(C)(=O)=O)cc5)cc4c32)ccc1C
% of control ([5]; at 1 µM): 98% | % of control ([5]; at 10 µM): 69%

N#Cc1cccc(-c2c[nH]c3ncnc(N4CCOCC4)c23)c1
% of inhibition [6]: 6%

Cc1cc(F)c(C(=O)Nc2cccc(-c3nncn3C(C)C)n2)cc1-n1cnc(C2CC2)c1
% of control [7]: 100%

CNC(=O)Nc1ccc(-c2nc(N3CC4CCC(C3)O4)c3cnn(C4CCC5(CC4)OCCO5)c3n2)cc1
% of control [8]: 14%

Cn1cc(-n2cnc3c(NCc4nc5cc(Cl)c(Cl)cc5[nH]4)nc(N4CCOCC4)nc32)cn1
% of control [9]: -2.35%

— ChEMBL document CHEMBL5465560, “Selectivity Literature for EUbOPEN Chemogenomic Library” (2024)
